Values quoted from earlier work in patent US20020037899A1, “Compositions containing an inhibitor of dihydrofolate reductase and a folate” (priority 2000, published 2002).

Assays:
[1] = not given; remark: listed apart in the source
[2] = system: rheumatoid arthritis patients receiving methotrexate; conditions: for reduction in mucosal and gastrointestinal side effect: folic acid or folinic acid administered to rheumatoid arthritis patients receiving methotrexate

Compound	solubility in water [mg per ml]	stable to heating at temperatures [1]	reduction in mucosal and gastrointestinal side effect [2] [%]	effect on disease symptoms such as painful joints ([2]; high dosages of folinic acid, rheumatoid arthritis patients receiving methotrexate)
Nc1nc2ncc(CNc3ccc(C(=O)N[C@@H](CCC(=O)O)C(=O)O)cc3)nc2c(=O)[nH]1 [folic acid]	1.6	below 200 °C	79	–
Nc1nc(=O)c2c([nH]1)NCC(CNc1ccc(C(=O)N[C@@H](CCC(=O)O)C(=O)O)cc1)N2C=O (mixture of isomers) [folinic acid]	–	–	79	increase in disease symptoms
